Measured values from ChEMBL document CHEMBL1201862, “PubChem BioAssay data set” (2004).
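Interpolation was linear, between the two tested concentrations surrounding the appropriate level; five concentrations were tested over 48 hours in 96-well plates. Here, GI50 denotes the concentration required for 50% inhibition of growth.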 Activity calls are given as the source filed them. No stated cut-off is given here; in the data, active = GI50 up to about 1.1 µM and inactive = higher.

Legend:
Test in all cases: inhibition of tumour cell growth, NCI panel, 48 h
HCT-15 = test system: HCT-15
SNB-19 = test system: SNB-19
SW-620 = test system: SW-620
MOLT-4 = test system: MOLT-4
Malme-3M = test system: Malme-3M
SK-OV-3 = test system: SK-OV-3
A549 = test system: A549
CAKI-1 = test system: CAKI-1
SK-MEL-2 = test system: SK-MEL-2
SK-MEL-5 = test system: SK-MEL-5
SF-295 = test system: SF-295
HOP-62 = test system: HOP-62
NCI-H226 = test system: NCI-H226
KM12 = test system: KM12
LOX IMVI = test system: LOX IMVI
TK-10 = test system: TK-10
RXF 393 = test system: RXF 393
IGROV-1 = test system: IGROV-1
HCT-116 = test system: HCT-116

| SMILES | GI50 (HCT-15) | GI50 (SNB-19) | GI50 (SW-620) | GI50 (MOLT-4) | GI50 (Malme-3M) | GI50 (SK-OV-3) | GI50 (A549) | GI50 (CAKI-1) | GI50 (SK-MEL-2) | GI50 (SK-MEL-5) | GI50 (SF-295) | GI50 (HOP-62) | GI50 (NCI-H226) | GI50 (KM12) | GI50 (LOX IMVI) | GI50 (TK-10) | GI50 (RXF 393) | GI50 (IGROV-1) | GI50 (HCT-116) |
| --- | --- | --- | --- | --- | --- | --- | --- | --- | --- | --- | --- | --- | --- | --- | --- | --- | --- | --- | --- |
| CC(=O)O[C@H]1[C@@H]2[C@@H]3[C@@H](C[C@H]1C)[C@@H](C)CO[C@@]1(C)CC/C=C(/C)C[C@@H]2O[C@@H]31 | > 100 µM | > 100 µM (inactive) | > 100 µM (inactive) | > 100 µM (inactive) | > 100 µM (inactive) | > 100 µM (inactive) | > 100 µM (inactive) | > 100 µM (inactive) | > 100 µM (inactive) | > 100 µM (inactive) | > 100 µM (inactive) | > 100 µM (inactive) | > 100 µM (inactive) | > 100 µM (inactive) | > 100 µM (inactive) | > 100 µM (inactive) | > 100 µM (inactive) | > 100 µM (inactive) | > 100 µM (inactive) |
| CC1(C)CC(=O)C(C(=O)Nc2cccs2)=C(O)C1 | 33.9 µM | 31.1 µM (inactive) | 38.8 µM (inactive) | 28 µM (inactive) | 32.1 µM (inactive) | 62.4 µM (inactive) | 32.1 µM (inactive) | 14.6 µM (inactive) | 35.9 µM (inactive) | 40.6 µM (inactive) | 28.9 µM (inactive) | 34.8 µM (inactive) | 23.4 µM (inactive) | 38.1 µM (inactive) | 32.3 µM (inactive) | 64.6 µM (inactive) | 29.9 µM (inactive) | 32.9 µM (inactive) | 29.7 µM (inactive) |
| O=C1NC(Cc2ccc(O)cc2)C(=O)N2CCCC12 (stereo not given) | > 100 µM | > 100 µM (inactive) | > 100 µM (inactive) | > 100 µM (inactive) | > 100 µM (inactive) | > 100 µM (inactive) | > 100 µM (inactive) | > 100 µM (inactive) | > 100 µM (inactive) | > 100 µM (inactive) | > 100 µM (inactive) | > 100 µM (inactive) | > 100 µM (inactive) | > 100 µM (inactive) | > 100 µM (inactive) | > 100 µM (inactive) | > 100 µM (inactive) | > 100 µM (inactive) | > 100 µM (inactive) |
| O=CC12c3ccccc3C(c3ccccc31)C1C(=O)NC(=O)C12 (stereo not given) | > 100 µM | > 100 µM (inactive) | > 100 µM (inactive) | 97.3 µM (inactive) | 90.2 µM (inactive) | > 100 µM (inactive) | > 100 µM (inactive) | 54.2 µM (inactive) | > 100 µM (inactive) | 37.2 µM (inactive) | > 100 µM (inactive) | 56 µM (inactive) | > 100 µM (inactive) | > 100 µM (inactive) | 50.1 µM (inactive) | > 100 µM (inactive) | 76.2 µM (inactive) | 37.2 µM (inactive) | 45.9 µM (inactive) |
| Cn1ccnc1CCc1ccc(Cl)cc1Cl | > 100 µM | > 100 µM (inactive) | > 100 µM (inactive) | > 100 µM (inactive) | > 100 µM (inactive) | > 100 µM (inactive) | > 100 µM (inactive) | > 100 µM (inactive) | > 100 µM (inactive) | – | 79.1 µM (inactive) | > 100 µM (inactive) | > 100 µM (inactive) | > 100 µM (inactive) | > 100 µM (inactive) | > 100 µM (inactive) | 35.4 µM (inactive) | > 100 µM (inactive) | > 100 µM (inactive) |
| CCOC(=O)C1CC(=O)C=C2CCCCC21 (stereo not given) | > 100 µM | > 100 µM (inactive) | > 100 µM (inactive) | > 100 µM (inactive) | > 100 µM (inactive) | > 100 µM (inactive) | > 100 µM (inactive) | > 100 µM (inactive) | > 100 µM (inactive) | > 100 µM (inactive) | > 100 µM (inactive) | > 100 µM (inactive) | – | > 100 µM (inactive) | > 100 µM (inactive) | > 100 µM (inactive) | > 100 µM (inactive) | > 100 µM (inactive) | > 100 µM (inactive) |
| Cc1ccc(Nc2nc3c(s2)C(=O)c2ccccc2C3=O)c(C)c1 | 17.5 µM | 14.6 µM (inactive) | 20 µM (inactive) | 3.94 µM (inactive) | 13.6 µM (inactive) | 29.6 µM (inactive) | 16.6 µM (inactive) | 14.2 µM (inactive) | 13.7 µM (inactive) | 13.1 µM (inactive) | 15.3 µM (inactive) | 16.5 µM (inactive) | 12.1 µM (inactive) | 16 µM (inactive) | 13.3 µM (inactive) | 21.8 µM (inactive) | 15.6 µM (inactive) | 16.4 µM (inactive) | – |
| COc1ccc2c(c1)Oc1cc(O)ccc1[C@H]2c1ccccc1C(=O)NC(C)c1ccccc1 (stereo not given in full) | 14.6 µM | 17.6 µM (inactive) | 17.1 µM (inactive) | 9.73 µM (inactive) | 20.4 µM (inactive) | 21 µM (inactive) | 13.2 µM (inactive) | 17.3 µM (inactive) | 21.5 µM (inactive) | 15.1 µM (inactive) | 12.4 µM (inactive) | 18.8 µM (inactive) | 20.7 µM (inactive) | 14.3 µM (inactive) | 16.9 µM (inactive) | 24.2 µM (inactive) | 18.7 µM (inactive) | 15.1 µM (inactive) | 13.6 µM (inactive) |
| C[C@]12CCC(=O)C=C1CC[C@@H]1[C@@H]2C(=O)C[C@@]2(C)[C@H]1CC[C@]2(O)C(=O)CO [CORTISONE] | > 100 µM | > 100 µM (inactive) | > 100 µM (inactive) | > 100 µM (inactive) | > 100 µM (inactive) | > 100 µM (inactive) | > 100 µM (inactive) | > 100 µM (inactive) | > 100 µM (inactive) | > 100 µM (inactive) | > 100 µM (inactive) | – | > 100 µM (inactive) | > 100 µM (inactive) | – | > 100 µM (inactive) | > 100 µM (inactive) | > 100 µM (inactive) | > 100 µM (inactive) |
| CC[C@@H]1OC2(C)CC(S(=O)(=O)c3ccccc3O)CC1O2 (stereo not given in full) | > 100 µM | > 100 µM (inactive) | > 100 µM (inactive) | > 100 µM (inactive) | > 100 µM (inactive) | > 100 µM (inactive) | > 100 µM (inactive) | < 0.01 µM (active) | > 100 µM (inactive) | > 100 µM (inactive) | > 100 µM (inactive) | > 100 µM (inactive) | > 100 µM (inactive) | > 100 µM (inactive) | – | – | > 100 µM (inactive) | > 100 µM (inactive) | > 100 µM (inactive) |
| CCCC(=O)N[C@H]1C2C3CC4C5CC(C42)C1(C)C53 (stereo not given in full) | > 100 µM | > 100 µM (inactive) | > 100 µM (inactive) | > 100 µM (inactive) | > 100 µM (inactive) | > 100 µM (inactive) | > 100 µM (inactive) | > 100 µM (inactive) | > 100 µM (inactive) | > 100 µM (inactive) | > 100 µM (inactive) | > 100 µM (inactive) | > 100 µM (inactive) | > 100 µM (inactive) | > 100 µM (inactive) | > 100 µM (inactive) | > 100 µM (inactive) | > 100 µM (inactive) | > 100 µM (inactive) |
| CC1(C)OCC([C@H]2CC23SCCCS3)O1 (stereo not given in full) | > 100 µM | > 100 µM (inactive) | – | > 100 µM (inactive) | > 100 µM (inactive) | > 100 µM (inactive) | > 100 µM (inactive) | > 100 µM (inactive) | > 100 µM (inactive) | > 100 µM (inactive) | > 100 µM (inactive) | > 100 µM (inactive) | > 100 µM (inactive) | > 100 µM (inactive) | – | > 100 µM (inactive) | > 100 µM (inactive) | > 100 µM (inactive) | > 100 µM (inactive) |
| C[C@H]1CC[P+](Cc2ccccc2)(c2ccccc2)C1 (stereo not given in full) | > 100 µM | > 100 µM (inactive) | > 100 µM (inactive) | > 100 µM (inactive) | 30.3 µM (inactive) | > 100 µM (inactive) | > 100 µM (inactive) | – | > 100 µM (inactive) | 22.2 µM (inactive) | > 100 µM (inactive) | > 100 µM (inactive) | > 100 µM (inactive) | > 100 µM (inactive) | 71.4 µM (inactive) | > 100 µM (inactive) | > 100 µM (inactive) | 64.7 µM (inactive) | > 100 µM (inactive) |
| COCCOCOC(C)(C)[C@H](CCOC(C)=O)O[Si](c1ccccc1)(c1ccccc1)C(C)(C)C | 20.3 µM | 49 µM (inactive) | 28.1 µM (inactive) | 3.75 µM (inactive) | 16.6 µM (inactive) | 35.4 µM (inactive) | 21.1 µM (inactive) | 26.2 µM (inactive) | 18.6 µM (inactive) | 10.5 µM (inactive) | 16 µM (inactive) | 23.3 µM (inactive) | 3.72 µM (inactive) | 15.4 µM (inactive) | 14.1 µM (inactive) | 22.8 µM (inactive) | 16 µM (inactive) | 23.6 µM (inactive) | 5.93 µM (inactive) |
| CCCCCCCCC[C@@H]1CC(=O)OCC2OC(O[C@H](CCCCCCCCC)CC(=O)OCC3OC(O[C@H](CCCCCCCCC)CC(=O)OCC4OC(O1)C(O)C(O)C4O)C(O)C(O)C3O)C(O)C(O)C2O (stereo not given in full) | 5.43 µM | 8.89 µM (inactive) | 5.83 µM (inactive) | 6.22 µM (inactive) | 8.83 µM (inactive) | 13.4 µM (inactive) | 14.7 µM (inactive) | 3.21 µM (inactive) | 8.67 µM (inactive) | 12.5 µM (inactive) | 14.1 µM (inactive) | 12.3 µM (inactive) | 3.9 µM (inactive) | 6.5 µM (inactive) | 3.52 µM (inactive) | 8.15 µM (inactive) | 17 µM (inactive) | 14.5 µM (inactive) | 8.18 µM (inactive) |
